Results taken from PubChem BioAssay (NCI).
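96-well plates; 48 h exposure; 5 concentrations. Endpoints by linear interpolation between flanking doses. Not reached: highest tested concentration assigned. GI50 = concentration required for 50% inhibition of growth. TGI is the concentration that stops growth completely.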

Key:
Experiment in all cases: inhibition of tumour cell growth, NCI panel, 48 h
COLO 205 colon = test system: COLO 205 colon
SN12C renal = test system: SN12C renal
SW-620 colon = test system: SW-620 colon
EKVX NSCLC = test system: EKVX NSCLC
UACC-62 melanoma = test system: UACC-62 melanoma
UACC-257 melanoma = test system: UACC-257 melanoma
MDA-MB-231 breast = test system: MDA-MB-231 breast
DU-145 prostate = test system: DU-145 prostate
SK-MEL-2 melanoma = test system: SK-MEL-2 melanoma
U251 CNS = test system: U251 CNS

Row | Structure (SMILES) | GI50 (COLO 205 colon) | TGI (COLO 205 colon) | GI50 (SN12C renal) | TGI (SN12C renal) | GI50 (SW-620 colon) | TGI (SW-620 colon) | GI50 (EKVX NSCLC) | TGI (EKVX NSCLC) | GI50 (UACC-62 melanoma) | TGI (UACC-62 melanoma) | GI50 (UACC-257 melanoma) | TGI (UACC-257 melanoma) | GI50 (MDA-MB-231 breast) | TGI (MDA-MB-231 breast) | GI50 (DU-145 prostate) | TGI (DU-145 prostate) | GI50 (SK-MEL-2 melanoma) | TGI (SK-MEL-2 melanoma) | GI50 (U251 CNS) | TGI (U251 CNS)
1 | CCN1[C@@H](C(=O)NC23CCC(C(=O)O)(CC2)CC3)[C@H](c2cccc(Cl)c2F)[C@]2(C(=O)Nc3cc(Cl)ccc32)C12CCCCC2 | 3.02 µM | 10.6 µM | 3.67 µM | 19.4 µM | 3.92 µM | 17.1 µM | 2.53 µM | 13.7 µM | 0.0372 µM | 2.24 µM | 0.228 µM | 1.86 µM | 5.85 µM | 27.4 µM | 5.47 µM | 18.5 µM | 2.02 µM | 5.18 µM | 3.29 µM | 15.5 µM
2 | O=C1/C(=C\c2ccco2)Oc2ccccc21 |  | > 100 µM |  | > 100 µM |  | > 100 µM |  | > 100 µM |  | > 100 µM |  | > 100 µM |  | > 100 µM |  | > 100 µM |  | > 100 µM |  | > 100 µM
3 | CC(/C=C/C(O)=C1/C(=O)CNC1=O)=C\[C@@H](C)[C@H]1O[C@@]2(C)O[C@H](C(=O)[C@@H]3O[C@@]32C)[C@@H]1C |  | 43.6 µM |  | 47.3 µM |  | > 100 µM |  | 39.2 µM |  | 33.3 µM |  | 35.6 µM |  | 38.1 µM |  | 40.1 µM |  | 50.1 µM |  | 54.9 µM
4 | O=C(CC1(O)C(=O)Nc2ccc(F)cc21)c1ccc(C(=O)NCC2CCC3(CC2)OOC2(CCCCC2)OO3)cc1 (centres undefined) | 5.37 µM | 22.9 µM | 10.8 µM | 33.6 µM | 7.72 µM | 27.4 µM | 1.87 µM | 3.98 µM | 12.2 µM | 29 µM | 12.7 µM | 29.9 µM | 9.92 µM | 29.9 µM | 3.49 µM | 12.2 µM | 5.95 µM | 20.7 µM | 3.18 µM | 11.3 µM
5 | Cc1ccc(S(=O)(=O)c2nc(-c3ccccc3)oc2S(C)(=O)=O)cc1 | 1.7 µM | 3.21 µM | 1.92 µM | 3.95 µM | 2.05 µM | 4.21 µM | 6.08 µM | 19.3 µM | 1.89 µM | 3.98 µM | 3.01 µM | 12.2 µM | 1.87 µM | 3.76 µM | 1.71 µM | 3.15 µM | 3.4 µM | 14.1 µM | 5.88 µM | 18.3 µM
6 | O=[N+]([O-])c1cc([As](Br)c2ccc(O)c([N+](=O)[O-])c2)ccc1O |  | 3.25 µM |  | 3.3 µM |  | 3.56 µM |  | 3.86 µM |  | 3 µM |  | 3.33 µM |  | 3.11 µM |  | 4.59 µM |  | 2.59 µM |  | 4.47 µM
7 | CC(C)(C)[Si](C)(C)OC1[C@@H](CNC(N)=O)O[C@@H](n2cnc3c(NC(=O)Nc4ccccc4)ncnc32)[C@H]1O[Si](C)(C)C(C)(C)C (some centres undefined) | 1.23 µM | 2.7 µM | 0.916 µM | 1.84 µM | 0.981 µM | 1.87 µM | 1.94 µM | 8.02 µM | 6.19 µM | 12.6 µM | 5.36 µM | 12.1 µM | 5.49 µM | 12 µM | 1.71 µM | 5.59 µM | 7.09 µM | 14.9 µM | 1.89 µM | 7.93 µM
8 | CSc1ncnc2c1ncn2CC(=O)C1CCC2C3CCC4=CC(=O)CCC4(C)C3CCC12C (centres undefined) |  | 14.4 µM |  | > 93.8 µM |  | > 100 µM |  | 68.3 µM |  | 14 µM |  | 6.09 µM |  | 27.7 µM |  | > 96.7 µM |  | 11.6 µM |  | 42.4 µM
9 | CO[C@H]1/C=C/O[C@@]2(C)Oc3c(C)c(O)c4c(O)c(c(/C=N/N5CCN(C)CC5)c(O)c4c3C2=O)NC(=O)/C(C)=C\C=C\[C@H](C)[C@H](O)[C@@H](C)[C@@H](O)[C@@H](C)[C@H](OC(C)=O)[C@@H]1C |  | > 100 µM |  | > 100 µM |  | > 100 µM |  | > 100 µM |  | > 100 µM |  | > 100 µM |  | > 100 µM |  | > 100 µM |  | > 100 µM |  | 
10 | CC(C)(C)NCC(O)COc1c(Br)c(Br)c(Br)c2c1OC(C)(C)C2 (centres undefined) | 1.55 µM | 3.2 µM | 1.87 µM | 3.43 µM | 1.7 µM | 3.1 µM | 1.61 µM | 3.02 µM | 1.88 µM | 3.32 µM | 1.99 µM | 3.91 µM | 1.54 µM | 3.01 µM | 1.51 µM | 2.84 µM | 1.6 µM | 3.23 µM | 1.92 µM | 3.41 µM
11 | COc1ccc(-c2c(C#N)c(N)nc(N3CCOCC3)c2C#N)cc1 | 2.13 µM | 26.5 µM | 25.7 µM | > 100 µM | 50.3 µM | > 100 µM | 21.4 µM | > 100 µM | 14.6 µM | 74.7 µM | 23.9 µM | 82.1 µM | 11 µM | 35.1 µM | 27.3 µM | > 100 µM | 27.1 µM | > 100 µM | 27.4 µM | > 100 µM
